# According to patent publication US8754073B2, “Substituted piperazino-dihydrothienopyrimidines” (Boehringer Ingelheim International GmbH, priority 2007, dated 2014):
# Molecular target: PDE4B (Homo sapiens, UniProt Q07343)
# Assay: Scintillation Proximity Assay (SPA) of PDE4B enzyme activity ([H3]-cAMP cleavage)
# Type: biochemical
# Settings: test substance 1 μM; one-hour incubation of [H3]-cAMP with PDE4B enzyme at 30° C.
# Protocol: The inhibitions (in %) at 1 μM of the individual Example substances are given in the following Table of Examples and were determined as follows:
# The Scintillation Proximity Assay (SPA) (GE Healthcare, No. TRKQ7090) was carried out by using the different affinities of cyclic 3′-5′-adenosinemonophosphate (cAMP, low affinity) and linear 5′-adenosinemonophosphate (AMP, high affinity) for yttrium silicate scintillator beads. The cAMP specific phosphodiesterase (PDE) PDE4B cleaves the 3′-phosphoester bond of tritium-labelled [H3]-cAMP to form [H3]-5′-AMP. This [H3]-AMP accumulates on the scintillator beads because of its higher affinity for them and causes scintillation events (flashes of light) which are measured in a Wallac Microbeta Scintillation Counter.
# The experiment starts with a one-hour incubation of [H3]-cAMP with the PDE4B enzyme in assay buffer at 30° C., in each case once with the Example substance to be tested (in a concentration of 1 μM) and once without the Example substance to be tested.
# After this incubation, the reaction is stopped by the addition of the beads. The beads have an opportunity to settle in the next 45 minutes, then the measurement is carried out in the Scintillation Counter. If the substance is capable of inhibiting the enzymatic activity of the PDE4B, less [H3]-AMP is produced during the incubation phase and fewer scintillation events can be measured.
# Sequence of PDE4B (Q07343 whole entry, species assumed): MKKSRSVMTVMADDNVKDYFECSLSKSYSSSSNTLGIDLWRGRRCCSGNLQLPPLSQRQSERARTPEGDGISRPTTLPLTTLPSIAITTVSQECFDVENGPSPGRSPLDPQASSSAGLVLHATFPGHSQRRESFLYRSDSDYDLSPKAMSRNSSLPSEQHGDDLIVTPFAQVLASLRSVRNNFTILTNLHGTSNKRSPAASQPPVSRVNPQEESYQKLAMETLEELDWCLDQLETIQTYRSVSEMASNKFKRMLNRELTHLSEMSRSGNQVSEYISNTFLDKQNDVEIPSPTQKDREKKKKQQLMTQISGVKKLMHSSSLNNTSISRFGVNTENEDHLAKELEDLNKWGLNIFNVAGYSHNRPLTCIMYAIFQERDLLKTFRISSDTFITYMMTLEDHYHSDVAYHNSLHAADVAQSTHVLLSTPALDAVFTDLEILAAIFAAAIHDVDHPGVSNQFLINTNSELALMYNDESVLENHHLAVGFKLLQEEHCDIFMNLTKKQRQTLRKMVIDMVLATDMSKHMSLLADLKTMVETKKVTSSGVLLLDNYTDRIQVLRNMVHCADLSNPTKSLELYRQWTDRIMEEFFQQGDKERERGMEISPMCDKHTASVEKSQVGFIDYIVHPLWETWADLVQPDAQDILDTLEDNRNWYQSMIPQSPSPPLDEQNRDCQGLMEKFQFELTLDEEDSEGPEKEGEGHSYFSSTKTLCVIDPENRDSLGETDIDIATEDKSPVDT
row,SMILES,inhibition at 1 µM [%]
1,O=C1Nc2ccccc2C2(CCN(c3nc4c(c(NC5(CO)CC5)n3)[S+]([O-])CC4)CC2)O1 (centres unmarked) [Example 36],92
2,"CCc1[nH]c2ccc(F)cc2c1C1CCN(c2nc3c(c(Nc4cccc(F)c4)n2)[S+]([O-])CC3)CC1 (centres unmarked) [Example 82, {2-[4-(2-Ethyl-5-Fluoro-1H-Indol-3-Yl)-Piperidin-1-Yl]-5-Oxo-6,7-Dihydro-5H-5λ^4-Thieno[3,2-d]Pyrimidin-4-Yl}-(3-Fluorophenyl)-Amine]",92
3,[O-][S+]1CCc2nc(N3CCC4(CC3)OCc3ccccc34)nc(Nc3cccc(F)c3)c21 (centres unmarked) [Example 140],83
4,[O-][S+]1CCc2nc(N3CCC(c4c[nH]c5ccccc45)CC3)nc(NC3(CO)CC3)c21 (centres unmarked) [Example 26],96
5,CC(C)[C@H](CO)Nc1nc(N2CCC(c3cccc(Cl)c3)CC2)nc2c1[S+]([O-])CC2 (some centres unmarked) [Example 24],94
6,[O-][S+]1CCc2nc(N3CCC(c4nc(-c5cccnc5)no4)CC3)nc(NC3CCOCC3)c21 (centres unmarked) [Example 131],94
7,[O-][S+]1CCc2nc(N3CCC(O)(c4cc(F)cc(F)c4)CC3)nc(Nc3cccc(F)c3)c21 (centres unmarked) [Example 77],96
8,CN1C[C@@H](Nc2nc(N3CCC(c4c[nH]c5ccccc45)CC3)nc3c2[S+]([O-])CC3)CCC1=O (some centres unmarked) [Example 41],97
9,CN1C[C@@H](Nc2nc(N3CCC(c4ccncc4)CC3)nc3c2[S+]([O-])CC3)CCC1=O (some centres unmarked) [Example 48],96
10,CC(C)[C@H](CO)Nc1nc(N2CCC(c3nnc4ccccn34)CC2)nc2c1[S+]([O-])CC2 (some centres unmarked) [Example 155],83
11,CC(C)[C@H](CO)Nc1nc(N2CCC(c3cccc(O)c3)CC2)nc2c1[S+]([O-])CC2 (some centres unmarked) [Example 17],93
12,COC(=O)c1cccc(C2CCN(c3nc4c(c(NC5CCOCC5)n3)[S+]([O-])CC4)CC2)c1 (centres unmarked) [Example 120],95
13,O=C1Nc2ccccc2C2(CCN(c3nc4c(c(Nc5cccc(F)c5)n3)[S+]([O-])CC4)CC2)O1 (centres unmarked) [Example 80],94
14,"[O-][S+]1CCc2nc(N3CCC(c4nc5ccccc5o4)CC3)nc(NC3CCOCC3)c21 (centres unmarked) [Example 99, [2-(4-Benzoxazol-2-Yl-Piperidin-1-Yl)-5-Oxo-6,7-Dihydro-5H-5λ^4-Thieno[3,2-d]Pyrimidin-4-Yl]-(Tetrahydropyran-4-Yl)-Amine]",97

# Same assay, conditions: test substance 1 μM; one-hour incubation with [H3]-cAMP at 30° C.
row,SMILES,inhibition at 1 µM [%]
1,Cc1cn(C)nc1CN(C)C(=O)c1ccc(OC2CCN(c3nc4c(c(NC5CCOCC5)n3)[S+]([O-])CC4)CC2)cc1 (centres unmarked) [Example 239],94
2,"Cn1cc(C2CCN(c3nc4c(c(NC5CCOCC5)n3)[S+]([O-])CC4)CC2)c2cc(C(C)(C)C)ccc21 (centres unmarked) [Example 192, {2-[4-(5-tert-butyl-1-methyl-1H-indol-3-yl)-piperidin-1-yl]-5-oxo-6,7-dihydro-5H-5λ^4-thieno[3,2-d]pyrimidin-4-yl}-(tetrahydropyran-4-yl)-amine]",95
3,"COCC1(c2ccc(Cl)cc2)CCN(c2nc3c(c(N[C@H]4CCC(=O)N(C)C4)n2)[S+]([O-])CC3)CC1 (some centres unmarked) [Example 260, 5-{2-[4-(4-chlorophenyl)-4-methoxymethylpiperidin-1-yl]-5-oxo-6,7-dihydro-5H-5μ^4-thieno[3,2-d]pyrimidin-4-ylamino}-1-methylpiperidin-2-one]",96
4,"COC1(c2cc(F)cc(F)c2)CCN(c2nc3c(c(N[C@H]4CCC(=O)N(C)C4)n2)[S+]([O-])CC3)CC1 (some centres unmarked) [Example 273, 5-{2-[4-(3,5-difluorophenyl)-4-methoxypiperidin-1-yl]-5-oxo-6,7-dihydro-5H-5λ^4-thieno[3,2-d]pyrimidin-4-ylamino}-1-methylpiperidin-2-one]",94
5,O=C(c1cccc(C2CCN(c3nc4c(c(NC5CCOCC5)n3)[S+]([O-])CC4)CC2)c1)N1CCOCC1 (centres unmarked) [Example 247],90
6,[O-][S+]1CCc2nc(N3CCC(Oc4ccc(F)c(F)c4)CC3)nc(NC3CCOCC3)c21 (centres unmarked) [Example 175],89
